Measurements reported in US20260306525A1, “COMBINATION THERAPY GLUCOCORTICOIDS AND GINSENOSIDE” (FYTAGORAS B.V., priority 2023, published 2026).

Experiments:
il8 = assay: qPCR il8 expression in zebrafish larvae; assay type: in vivo, zebrafish (Danio rerio); conditions: Example 2, wounded larvae
Description: (§1) To determine mRNA levels of specific genes in zebrafish, 3 dpf larvae were used (wounded and non-wounded) and after 6 h of chemical treatments (2 h pre-wounding, 4 h post-wounding), as indicated. Per sample, groups of 15 larvae were collected in TRIzol reagent (Thermo Fisher Scientific, Waltham, MA, USA), and total RNA was isolated using the miRNeasy mini kit (Qiagen, Hilden, Germany). For similar experiments in Hela cells, cells were seeded in 6 well plates, and after 6 h of chemical treatment, the cells were removed from the wells using TRIzol reagent, and total RNA was isolated using the miRNeasy mini kit according to the manufacturer's instructions. The RNA samples were DNAse-treated utilizing the DNA-free™ DNA Removal Kit (Thermo Fisher Scientific). The cDNA synthesis was performed using the iScript cDNA synthesis kit (Bio-Rad Laboratories, Hercules, CA, USA) using 1 μg of RNA per sample. For the PCR reactions, 10 μM of forward and 10 μM of reverse primer, 12.5 μl of iQ SYBR Green Supermix (Bio-Rad), and 2 μl of cDNA were added to the qPCR reaction mixture. […] The reactions were performed on a MyiQ-single-color real-time PCR detection system (Bio-Rad Laboratories) with initial denaturation for 3 min at 95° C. and 40 cycles of 15 s at 95.5° C., 15 s at 60° C., and 30 s at 72° C. Cycle threshold values (Ct values, i.e. the cycle numbers at which a threshold value of the fluorescence intensity was reached) were determined for each sample. The gene expression level for each sample was normalized using the expression of ppial (peptidylprolyl isomerase Ab (cyclophilin A)) for zebrafish samples, 18S rRNA for human cells. The fold change per sample (compared to the respective control group) was calculated using the ΔΔCt method.

pck1 = assay: qPCR pck1 expression in zebrafish larvae; assay type: in vivo, zebrafish (Danio rerio)
Description: (§2) […] Groups of 15 larvae were collected in TRIzol reagent (ThermoFisher) and total RNA was isolated using miRNeasy mini kit (Qiagen, Hilden, Germany). For experiments in HeLa cells, cells were seeded in 6 well plates and after treatment, the cells were removed from the wells using TRIzol reagent and mRNA was isolated using miRNeasy mini kit (Qiagen) according to the manufacturer's instructions. The RNA samples were DNAse-treated utilizing the DNA-free™ DNA Removal Kit (ThermoFisher Scientific). The cDNA synthesis was performed using the iScript cDNA synthesis kit (Bio-Rad Laboratories, Hercules, CA, USA) using 1 μg of RNA per sample. For qPCR, 10 μM of forward primer and 10 μM of reverse primer, 12.5 μl of IQ SYBR Green Supermix (Bio-Rad Laboratories), and 2 μl of cDNA were added to the qPCR reaction mixture. […] The qPCR reactions were performed on a MyiQ-single-color real-time PCR detection system (Bio-Rad Laboratories), with initial denaturation for 3 min, 95° C., and 40 cycles of 15 s at 95.5° C., 15 s at 60° C., and 30 s at 72° C. Cycle threshold values (Ct values, i.e. the cycle numbers at which a threshold value of the fluorescence intensity was reached) were determined for each sample. The gene expression level for each sample was normalized using the expression of ppial (peptidylprolyl isomerase Ab (cyclophilin A)) for zebrafish samples, and 18S rRNA for human cells. The fold change per sample (compared to the respective control group) was calculated using the […]Ct method.
as §1, with “To determine mRNA levels of specific genes in zebrafish, 3 dpf larvae were used (wounded and non-wounded) and after 6 h of chemical treatments (2 h pre-wounding, 4 h post-wounding), as indicated.” left out

fkbp5 = assay: qPCR fkbp5 expression in zebrafish larvae; assay type: in vivo, zebrafish (Danio rerio)
Description: as §2
as §1, with “To determine mRNA levels of specific genes in zebrafish, 3 dpf larvae were used (wounded and non-wounded) and after 6 h of chemical treatments (2 h pre-wounding, 4 h post-wounding), as indicated.” left out

gr = assay: Gr transactivation activity in Tg(9xGCRE-HSV.UI23:EGFP)ia20 reporter larvae; assay type: in vivo, zebrafish (Danio rerio); conditions: Example 2, 24 h, 3 dpf
Description: (§3) To investigate the Gr transactivation activity in zebrafish larvae, the Tg(9xGCRE-HSV.UI23:EGFP)^ia20 reporter line was used, which expresses enhanced green fluorescent protein (EGFP) under the control of a promoter containing an array of nine GREs. […] The integrated intensity of the EGFP signal in the larvae was determined using ImageJ software.
as §3, with “Tg(9xGCRE-HSV.UI23:EGFP^ia20)” for “Tg(9xGCRE-HSV.UI23:EGFP)^ia20”

zebrafish larvae [1] = assay: whole-body glucose measurement of zebrafish larvae; conditions: for whole-body glucose level: Example 2, non-wounded; for whole-body glucose level / whole-body glucose level upon wounding: 5 dpf; for whole-body glucose level upon wounding: Example 2, wounded at 2 dpf
Description: In each experiment, three biological replicates were used for each treatment group, and the colorimetric assay was performed using technical duplicates.
Tail fin wounding were performed at 2 days post-fertilization (dpf). At 5 dpf, the larvae (15 per sample) were placed in egg water for 1 h and collected in an Eppendorf tube, washed in egg water (3 times for 10 min). Subsequently, 100 μL of ice-cold glucose buffer was added to each sample, and the larvae were homogenized using a BulletBlender® for 3 min at 8,000 rpm. The homogenates were then centrifuged at 4° C. for 8 min at 11,000 rpm and the supernatant was stored at −20° C. Whole-body glucose concentrations were determined using a Glucose Colorimetric Assay kit (Cayman Chemical, Ann Arbor, MI, USA), according to the manufacturer's instructions. In each experiment, three biological replicates were used for each treatment group, and the colorimetric assay was performed using technical duplicates.

nfkbiaa = assay: qPCR nfkbiaa expression in zebrafish larvae; assay type: in vivo, zebrafish (Danio rerio); conditions: for nfkbiaa expression: Example 2, 6 h treatment
Description: as §2
as §1, with “To determine mRNA levels of specific genes in zebrafish, 3 dpf larvae were used (wounded and non-wounded) and after 6 h of chemical treatments (2 h pre-wounding, 4 h post-wounding), as indicated.” left out

zebrafish larvae [2] = assay: whole-body cortisol measurement of zebrafish larvae (ELISA); conditions: for whole-body cortisol level: Example 2, non-wounded; for whole-body cortisol level / whole-body cortisol level upon wounding: 5 dpf; for whole-body cortisol level upon wounding: Example 2, wounded at 2 dpf
Description: Ethyl acetate was added to the homogenate. The homogenates were then centrifuged at 4° C. for 8 min at 11,000 rpm and the supernatant was collected and vaporized. A volume of 150 μl of 0.2% Bovine serum albumin (Sigma-Aldrich) dissolved in PBS was added to the samples and frozen. Whole-body cortisol levels of the zebrafish larvae were determined by ELISA (Demeditec Diagnostics GmbH, Kiel-Wellsee, Germany), following the manufacturer's instructions. In each experiment, three biological replicates were used for each treatment group, and the ELISA was performed using technical duplicates.
Tail fin wounding were performed at 2 days post-fertilization (dpf). At 96hpf, the treatments were stopped, and larvae were incubated in egg water until 5 dpf to avoid cross-reactivity between the compounds and the cortisol antibody used in the ELISA. At dpf, the larvae were collected in an Eppendorf tube (30 larvae per sample), and 100 μl of ice-cold egg water was added. After the excess water had been taken out, the samples were glaciated in ethanol (EtOH)/dry-ice bath. Subsequently, the larvae were homogenized using a BulletBlender® for 3 min at 8,000 rpm. Ethyl acetate was added to the homogenate. The homogenates were then centrifuged at 4° C. for 8 min at 11,000 rpm, and the supernatant was collected and vaporized. A volume of 150 μl of 0.2% bovine serum albumin (Sigma-Aldrich) dissolved in PBS was added to the samples and frozen. Whole-body cortisol levels of the zebrafish larvae were determined using a Cortisol free in Saliva ELISA kit (Demeditec Diagnostics GmbH, Kiel-Wellsee, Germany), following the manufacturer's instructions. In each experiment, three biological replicates were used for each treatment group, and the ELISA was performed using technical duplicates.

[3] = 3 dpf, wounded larvae, 6 h, 10 μM beclomethasone, 50 μM Rg1 or combination
[4] = 5 dpf, 6 h, beclomethasone 10 μM, Rg1 50 μM or combination
[5] = 5 dpf, 5 days, beclomethasone 10 μM, Rg1 50 μM or combination
[6] = beclomethasone 0.1, 1, 5, 10, 15 μM without or with 50 μM Rg1

| SMILES | il8 expression (il8) | pck1 expression (pck1; Example 2, 6 h treatment) | fkbp5 expression (fkbp5; Example 2, 6 h treatment) | GFP fluorescence intensity (Gr transactivation) (gr) | whole-body glucose level (zebrafish larvae [1]) | nfkbiaa expression (nfkbiaa) | whole-body cortisol level (zebrafish larvae [2]) | whole-body glucose level upon wounding (zebrafish larvae [1]) | whole-body cortisol level upon wounding (zebrafish larvae [2]) | other results |
| --- | --- | --- | --- | --- | --- | --- | --- | --- | --- | --- |
| CC(C)=CCC[C@](C)(O)[C@H]1CC[C@]2(C)[C@@H]1[C@H](O)C[C@@H]1[C@@]3(C)CC[C@H](O)C(C)(C)[C@@H]3[C@@H](O)C[C@]12C [PPT, Protopanaxatriol] | Only a minor effect | did not increase the expression | did not increase the expression | none of the ginsenosides PPT, F1, Rh1, and Rg1 altered the fluorescence intensity | did not affect the glucose level | did not increase the expression | did decrease the cortisol concentration |  |  |  |
| CC(C)=CCC[C@](C)(O[C@@H]1O[C@H](CO)[C@@H](O)[C@H](O)[C@H]1O)[C@H]1CC[C@]2(C)[C@@H]1[C@H](O)C[C@@H]1[C@@]3(C)CC[C@H](O)C(C)(C)[C@@H]3[C@@H](O)C[C@]12C [F1] | Only a minor effect | did not increase the expression | did not increase the expression | none of the ginsenosides PPT, F1, Rh1, and Rg1 altered the fluorescence intensity | did not show any side effects | did not increase the expression | did not show any side effects | did not affect the glucose level | minor effect on the cortisol level and on tissue regeneration | cortisol effect upon wounding in presence of Gba2 inhibitor MZ31 (zebrafish larvae [2]; Example 2, wounded, with MZ31): These latter effects were Gba2-dependent |
| C[C@H]1C[C@H]2[C@@H]3CCC4=CC(=O)C=C[C@]4(C)[C@@]3(Cl)[C@@H](O)C[C@]2(C)[C@@]1(O)C(=O)CO [beclomethasone, reference compound] |  |  |  | significant increase in the GFP signal throughout the body of the larvae | increase in the glucose level |  | decrease in cortisol level |  |  | pck1 expression (pck1; [3]): upregulated the expression of pck1 and fkbp5; pck1 expression, short-term treatment (pck1; [4]): upregulated the expression; pck1 expression, long-term treatment (pck1; [5]): this upregulation of pck1 and nfkbiaa was significantly reduced after long-term treatment; fkbp5 expression (fkbp5; [3]): upregulated the expression of pck1 and fkbp5; fkbp5 expression, short-term treatment (fkbp5; 6 h, beclomethasone 10 μM, Rg1 50 μM or combination): upregulated the expression; fkbp5 expression, long-term treatment (fkbp5; 5 days, beclomethasone 10 μM, Rg1 50 μM or combination): the upregulation of fkbp5 did not decrease; whole body glucose level (zebrafish larvae [1]; 0-5 dpf, 10 μM beclomethasone, 50 μM Rg1 or combination): elevated whole body glucose; dose-response of whole-body glucose level (zebrafish larvae [1]; [6]): dose-dependent effect; nfkbiaa expression, short-term treatment (nfkbiaa; [4]): upregulated the expression; nfkbiaa expression, long-term treatment (nfkbiaa; [5]): this upregulation of pck1 and nfkbiaa was significantly reduced after long-term treatment; whole body cortisol level (zebrafish larvae [2]; 0-4 dpf, 10 μM beclomethasone, 50 μM Rg1 or combination): reduced whole body cortisol levels; dose-response of whole-body cortisol level (zebrafish larvae [2]; [6]): dose-dependent effect |
| CC(C)=CCC[C@](C)(O)[C@H]1CC[C@]2(C)[C@@H]1[C@H](O)C[C@@H]1[C@@]3(C)CC[C@H](O)C(C)(C)[C@@H]3[C@@H](O[C@@H]3O[C@H](CO)[C@@H](O)[C@H](O)[C@H]3O)C[C@]12C [Rh1] | no effect | did not increase the expression | did not increase the expression | none of the ginsenosides PPT, F1, Rh1, and Rg1 altered the fluorescence intensity | did not show any side effects | did not increase the expression | did not show any side effects | still not show any effect on the glucose or cortisol level or on tissue regeneration | still not show any effect on the glucose or cortisol level or on tissue regeneration |  |
